From publication PMC8231170, “Biphenylalkoxyamine Derivatives–Histamine H3 Receptor Ligands with Butyrylcholinesterase Inhibitory Activity” (Molecules, 2021)
Structures can show the parent of a compound that is named as a salt. Where two headings read alike, the source gives them in different places. Marks after values point to notes of the source that are not given here.

How the values were obtained:
BuChE from equine serum [1] = target: T1, BuChE from equine serum (Equus caballus, UniProt P81908); settings: cited from earlier work
T1 construct: AChE was obtained from electric eel and BuChE from equine serum; purchased Sigma Aldrich; host or cells: equine serum (natural source)
T1 sequence (P81908 whole entry): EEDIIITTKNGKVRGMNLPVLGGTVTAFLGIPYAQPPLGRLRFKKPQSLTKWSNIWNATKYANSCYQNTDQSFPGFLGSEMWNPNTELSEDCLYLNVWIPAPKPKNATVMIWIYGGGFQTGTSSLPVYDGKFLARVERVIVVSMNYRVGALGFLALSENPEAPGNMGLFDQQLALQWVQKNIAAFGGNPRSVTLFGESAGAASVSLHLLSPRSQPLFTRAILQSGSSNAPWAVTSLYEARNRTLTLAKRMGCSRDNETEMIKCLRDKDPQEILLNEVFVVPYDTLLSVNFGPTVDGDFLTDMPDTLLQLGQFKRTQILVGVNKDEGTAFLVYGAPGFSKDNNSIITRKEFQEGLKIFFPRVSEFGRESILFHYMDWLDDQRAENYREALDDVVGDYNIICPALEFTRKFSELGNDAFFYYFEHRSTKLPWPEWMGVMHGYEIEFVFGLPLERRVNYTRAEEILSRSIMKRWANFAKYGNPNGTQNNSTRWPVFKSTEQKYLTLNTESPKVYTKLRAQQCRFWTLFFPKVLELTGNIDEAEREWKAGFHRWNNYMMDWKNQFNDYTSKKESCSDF

human MAO B = target: T2, human MAO B (Homo sapiens, UniProt P27338); experiment: fluorometric Monoamine Oxidase assay; assay type: biochemical; settings: at 1 μM; read-out: hMAO B %Inh. (converted)
T2 construct: purchased Sigma Aldrich M7441
T2 sequence (P27338 1-520): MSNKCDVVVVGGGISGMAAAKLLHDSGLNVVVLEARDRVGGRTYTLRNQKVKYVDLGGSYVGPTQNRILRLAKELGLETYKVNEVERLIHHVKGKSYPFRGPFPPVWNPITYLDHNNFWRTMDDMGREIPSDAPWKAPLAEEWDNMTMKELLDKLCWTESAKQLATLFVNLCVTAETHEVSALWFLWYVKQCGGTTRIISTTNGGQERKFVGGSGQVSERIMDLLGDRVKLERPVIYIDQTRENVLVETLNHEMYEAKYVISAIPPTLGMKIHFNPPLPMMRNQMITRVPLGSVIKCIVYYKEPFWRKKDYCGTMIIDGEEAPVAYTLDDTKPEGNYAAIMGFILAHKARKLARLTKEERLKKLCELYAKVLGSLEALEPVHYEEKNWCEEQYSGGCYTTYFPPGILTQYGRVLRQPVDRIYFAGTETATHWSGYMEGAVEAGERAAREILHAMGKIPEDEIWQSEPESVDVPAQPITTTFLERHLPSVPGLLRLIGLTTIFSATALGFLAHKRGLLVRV
Protocol: Inhibition of human MAO B (hMAO B) was evaluated using a fluorometric Monoamine Oxidase assay as we described previously.
Inhibition of hMAO B was evaluated using fluorometric Monoamine Oxidase assay as described by Łażewska et al.. Recombinant MAO B was purchased from Sigma Aldrich (M7441). […] The assay was carried out in 96-well plate. Tested compounds dissolved in DMSO (1 μM) were added to wells that contained 98 µL of enzyme dilution (1 µg/well) in phosphate buffer (50 mM, pH 7.4). […] An enzymatic reaction started following addition of para-tyramine solution (200 μM). […] Each experiment was performed in duplicate.

AChE from electric eel [2] = target: T3, AChE from electric eel (Electrophorus electricus, UniProt O42275); settings: cited from earlier work; for eeAChE % Inh.: at 10 μM
T3 construct: AChE was obtained from electric eel and BuChE from equine serum; purchased Sigma Aldrich; host or cells: electric eel (natural source)
T3 sequence (O42275 24-633): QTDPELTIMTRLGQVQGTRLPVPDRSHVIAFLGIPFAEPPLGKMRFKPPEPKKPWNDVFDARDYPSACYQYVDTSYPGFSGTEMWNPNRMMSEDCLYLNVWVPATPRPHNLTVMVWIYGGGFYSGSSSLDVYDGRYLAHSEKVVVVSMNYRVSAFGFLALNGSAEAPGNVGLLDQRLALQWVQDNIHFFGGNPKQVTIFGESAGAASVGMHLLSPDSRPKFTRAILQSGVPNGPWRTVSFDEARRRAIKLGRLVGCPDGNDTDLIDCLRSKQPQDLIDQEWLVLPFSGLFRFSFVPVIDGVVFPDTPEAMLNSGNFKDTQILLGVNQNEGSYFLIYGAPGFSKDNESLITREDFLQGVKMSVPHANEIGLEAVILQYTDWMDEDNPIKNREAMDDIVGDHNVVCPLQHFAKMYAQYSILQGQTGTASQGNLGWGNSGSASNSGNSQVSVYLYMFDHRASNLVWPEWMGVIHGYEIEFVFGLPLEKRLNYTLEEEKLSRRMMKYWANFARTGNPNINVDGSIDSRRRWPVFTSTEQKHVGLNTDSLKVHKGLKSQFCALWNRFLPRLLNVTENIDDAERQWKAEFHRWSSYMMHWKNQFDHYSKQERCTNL

BuChE from equine serum [3] = target: T1, BuChE from equine serum; experiment: eqBuChE inhibition, Ellman's method; assay type: biochemical; settings: BuChE from equine serum; read-out: eqBuChE IC50 Mean ± SEM
Protocol: The inhibitory activities of the tested compounds against cholinesterases were evaluated by Ellman’s method. AChE was obtained from electric eel and BuChE from equine serum. […] Inhibitory activities of the tested compounds against cholinesterases were measured using a spectrophotometric method modified for 96-well microplates as described recently.
First, all compounds were screened at the concentration of 10 μM. […] Then, the percent of inhibition of tested enzymes for each compound was calculated. […] Each concentration was measured in triplicate. All calculations were made using nonlinear regression GraphPad Prism 5 (GraphPad Software, San Diego, CA, USA).

AChE from electric eel [4] = target: T3, AChE from electric eel; experiment: eeAChE inhibition, Ellman's method; assay type: biochemical; settings: for inhibition at 10 µM: read-out: eeAChE % Inh.; for IC50: AChE from electric eel, read-out: eeAChE IC50 Mean ± SEM
Protocol: The inhibitory activities of the tested compounds against cholinesterases were evaluated by Ellman’s method. AChE was obtained from electric eel and BuChE from equine serum. Donepezil and rivastigmine were used as reference compounds. […]. Inhibitory activities of the tested compounds against cholinesterases were measured using a spectrophotometric method modified for 96-well microplates as described recently.
[…]. First, all compounds were screened at the concentration of 10 μM. The changes in absorbance were measured at 412 nm, using a microplate reader (EnSpire Multimode; PerkinElmer, Waltham, MA, USA). Then, the percent of inhibition of tested enzymes for each compound was calculated. […] Each concentration was measured in triplicate. All calculations were made using nonlinear regression GraphPad Prism 5 (GraphPad Software, San Diego, CA, USA).

[5] = target: T4, human histamine H3 receptor (Homo sapiens, UniProt Q9Y5N1); settings: cited from earlier work; for Ki: read-out: hH3R Ki Mean ± SD [CI 95%], [3H]Nα-methylhistamine, HEK293 cells stably expressing human H3R
T4 construct: expressed in transfected cells; host or cells: HEK293
T4 sequence (Q9Y5N1 whole entry): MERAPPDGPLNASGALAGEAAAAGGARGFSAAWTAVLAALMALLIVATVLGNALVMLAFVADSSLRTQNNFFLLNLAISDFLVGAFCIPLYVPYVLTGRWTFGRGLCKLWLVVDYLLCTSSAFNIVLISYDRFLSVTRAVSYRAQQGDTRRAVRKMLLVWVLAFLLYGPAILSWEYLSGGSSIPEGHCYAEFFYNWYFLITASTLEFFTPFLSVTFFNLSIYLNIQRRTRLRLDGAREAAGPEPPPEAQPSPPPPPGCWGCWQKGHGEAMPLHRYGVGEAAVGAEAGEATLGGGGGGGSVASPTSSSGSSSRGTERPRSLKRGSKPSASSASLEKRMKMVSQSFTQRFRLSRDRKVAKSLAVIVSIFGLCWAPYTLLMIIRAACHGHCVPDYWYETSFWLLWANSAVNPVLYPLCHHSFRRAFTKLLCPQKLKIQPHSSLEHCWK

[6] = target: T4, human histamine H3 receptor; experiment: hH3R radioligand binding assay ([3H]Nα-methylhistamine)
Protocol: Affinity to human histamine H3 receptor stably expressed in HEK293 cells was evaluated in a radioligand binding assay with N^α-methylhistamine according to the previous procedure. […] The bound radioligand was separated from the free radioligand by filtration through GF/B filters (pretreated with 0.3% (m/v) polyethylenimine) using Inotech cell harvester (Dottikin, Switzerland). Unbound radioligand was removed by three washing steps with ice-cold water. The radioactivity was determined in a liquid scintillation counter (Perkin Elmer Trilux Betacounter, Germany). Scintillation data corrected for non-specific binding were analyzed using GraphPad Prism (V6.01, San Diego, CA, USA) software. Ki values were calculated from IC50 values (from at least three experiments, performed in duplicates) according to the Cheng–Prusoff equation [29].

[7] = system: mouse model of scopolamine-induced memory impairments; experiment: step-through Passive Avoidance Task; assay type: in vivo; settings: mice; for latency times, acquisition trial: i.p.
Protocol: This procedure was created for studying short-term memory as well as long-term memory. The paradigm requires the rodents to behave contrary to their innate preference for dark areas and for avoiding bright ones.
The experiments were carried out on adult male Albino Swiss mice (CD-1, 18–25 g). […] Experimental groups consisted of 6–12 animals, all the animals were used only once and they were killed by cervical dislocation immediately after the assay. Behavioral measures were scored by trained observers, which were blind to experimental conditions. Treatment of laboratory animals in the present study was in full accordance with the respective Polish regulations.
Control animals (negative control) were given an appropriate amount of vehicle (1% aqueous solution of Tween 80; i.p.) 30 min before the test.
The task was performed according to the method described previously. Briefly, the test was conducted in the apparatus with two compartments (LE872, Bioseb, France). The illuminated white compartment (20 cm × 21 cm × 20 cm, 1000 lx) was separated by an automated sliding gate with the smaller dark compartment (7.3 cm × 7.5 cm × 14 cm, 10 lx) equipped with an electric grid floor. For acquisition session, mice were first placed individually in the white compartment and after 30 s the gate to the smaller compartment was opened. Immediately after entering into the dark compartment, the gate was closed and the mouse was punished by an unavoidable electric foot shock (0.8 mA for 2 s). […] Next day (24 h later), the pretested animals were placed again into the bright compartment. […] The latency time to cross through the gate between the compartments was measured.

[8] = target: human butyrylcholineserase; settings: read-out: hBuChE IC50; cited from earlier work
[9] = read-out: eqBuChE IC50 Mean ± SEM
[10] = [3H]Nα-methylhistamine, HEK293 cells stably expressing human H3R, read-out: hH3R Ki Mean ± SD [CI 95%]

Structure (SMILES) | inhibition at 1 µM (human MAO B) [%] | IC50 (BuChE from equine serum [3]) [nM] | inhibition at 10 µM (AChE from electric eel [4]) [%] | further results
CC1CCN(CCCCCOc2ccc(-c3ccccc3)cc2)CC1 [Compound 3] | 36 |  |  | IC50 (BuChE from equine serum [1]; read-out: eqBuChE IC50): 851 nM; IC50 (BuChE from equine serum [1]; [9]): 850 ± 20 nM; eeAChE % Inh. (AChE from electric eel [2]): (42% ± 1) ^i
CC1CCN(CCCCCCOc2ccc(-c3ccccc3)cc2)CC1 [Compound 4] | 27 |  |  | IC50 (BuChE from equine serum [1]; [9]): 740 ± 20 nM; IC50 (AChE from electric eel [2]; AChE from electric eel, read-out: eeAChE IC50 Mean ± SEM): 4460 ± 100 nM; eeAChE % Inh. (AChE from electric eel [2]): more than 50%
c1ccc(-c2ccc(OCCCCCN3CCCCC3)cc2)cc1 [Compound 6] | 50 | 2160 ± 30 | 24 | 
c1ccc(-c2cccc(OCCCCCN3CCCCC3)c2)cc1 [Compound 7] | 11 | 1290 ± 20 | 24 | 
c1ccc(-c2ccc(OCCCCCCN3CCCCC3)cc2)cc1 [Compound 8] | 36 | 1630 ± 50 | 48 | 
c1ccc(-c2cccc(OCCCCCCN3CCCCC3)c2)cc1 [Compound 9] | 16 | 1780 ± 80 | 35 | Ki [5]: 149 ± 108 nM
c1ccc(-c2ccccc2OCCCCCCN2CCCCC2)cc1 [Compound 10, 1-(6-[1,1′-Biphenyl]-2-yloxy)hexyl)piperidine Hydrogen Oxalate] | 40 | 1280 ± 20 | 8 | Ki [6]: 221 nM
CC1CCCN(CCCCCOc2ccc(-c3ccccc3)cc2)C1 (centres unmarked) [Compound 11, 1-(5-([1,1′-Biphenyl]-4-yloxy)pentyl)-3-methylpiperidine Hydrogen Oxalate] | 28 | 910 ± 10 | 45 | Ki [6, 10]: 27.3 ± 15.1 nM
CC1CCCN(CCCCCOc2cccc(-c3ccccc3)c2)C1 (centres unmarked) [Compound 12, 1-(5-([1,1′-Biphenyl]-3-yloxy)pentyl)-3-methylpiperidine Hydrogen Oxalate] | 5 | 680 ± 10 | 27 | Ki [6]: 45 ± 13.4 nM
CC1CCCN(CCCCCCOc2ccc(-c3ccccc3)cc2)C1 (centres unmarked) [Compound 13, 1-(6-([1,1′-Biphenyl]-4-yloxy)hexyl)-3-methylpiperidine Hydrogen Oxalate] | 20 | 950 | > 50 | IC50 (AChE from electric eel [4]): 5020 ± 90 nM; Ki [6, 10]: 146 ± 65.3 nM
CC1CCCN(CCCCCCOc2cccc(-c3ccccc3)c2)C1 (centres unmarked) [Compound 14, 1-(6-([1,1′-Biphenyl]-3-yloxy)hexyl)-3-methylpiperidine Hydrogen Oxalate] | 35 | 1520 ± 40 | > 50 | IC50 (AChE from electric eel [4]): 4710 ± 130 nM; Ki [6]: 27 nM
CC1CCCN(CCCCCCOc2ccccc2-c2ccccc2)C1 (centres unmarked) [Compound 15, 1-(6-([1,1′-Biphenyl]-2-yloxy)hexyl)-3-methylpiperidine Hydrogen Oxalate] | 16 | 2100 ± 60 | 24 | Ki [6]: 23 nM
CC1CCN(CCCCCOc2cccc(-c3ccccc3)c2)CC1 [Compound 16] | 7 | 1460 ± 30 | 41 | 
CC1CCN(CCCCCCOc2cccc(-c3ccccc3)c2)CC1 [Compound 17] | 5 | 1490 ± 40 | 48 | Ki [5]: 172 ± 73 nM
CC1CCN(CCCCCCOc2ccccc2-c2ccccc2)CC1 [Compound 18, 1-(6-([1,1′-Biphenyl]-2-yloxy)hexyl)-4-methylpiperidine Hydrogen Oxalate] | 24 | 1480 ± 40 | 20 | Ki [6]: 561 nM
c1ccc(-c2cccc(OCCCCCN3CCCCCC3)c2)cc1 [Compound 20] | 14 | 470 ± 10 | 26 | 
c1ccc(-c2cccc(OCCCCCCN3CCCCCC3)c2)cc1 [Compound 21] | 43 | 870 | > 50 | IC50 (AChE from electric eel [4]): 3860 ± 80 nM; Ki [5]: 19 ± 5.5 nM
c1ccc(-c2ccccc2OCCCCCCN2CCCCCC2)cc1 [Compound 22, 1-(6-([1,1′-Biphenyl]-2-yloxy)hexyl)azepane Hydrogen Oxalate] | 17 | 690 ± 50 | 30 | Ki [6]: 528 nM
Clc1ccc(CCCOCCCN2CCCCC2)cc1 [Pitolisant, reference compound] | 2 |  |  | 
CCN(C)C(=O)Oc1cccc([C@H](C)N(C)C)c1 [Rivastigmine, rivastigmine, reference compound] |  |  |  | latency time, retention trial ([7]; 1.0 mg/kg i.p. before scopolamine 1 mg/kg): 84.6 ± 20.1 s; latency time, retention trial ([7]; 2.5 mg/kg i.p. before scopolamine 1 mg/kg): 98.7 ± 17.9 s; latency times, acquisition trial [7]: neither scopolamine, nor 19 nor rivastigmine significantly affected latency times; IC50 [8]: 370 nM
CN1[C@@H]2C[C@@H](OC(=O)[C@H](CO)c3ccccc3)C[C@H]1[C@@H]1O[C@@H]12 [Scopolamine, scopolamine, reference compound] |  |  |  | latency times, acquisition trial [7]: neither scopolamine, nor 19 nor rivastigmine significantly affected latency times
CNCCc1cnc[nH]1 [[^3H]N^α-methylhistamine, reference compound] |  |  |  | Kd ([5]; hH3R stably expressed in HEK293 cells, read-out: KD of radioligand at hH3R): 3.08 nM
